Results as given in ChEMBL document CHEMBL4350989, “Discovery of 2,4-diarylaminopyrimidine derivatives bearing dithiocarbamate moiety as novel FAK inhibitors with antitumor and anti-angiogenesis activities” (Eur J Med Chem, 2019).

Key:
MCF7 [1] = assay: Induction of apoptosis in human MCF7 cells assessed as early apoptotic cells at 0.005 uM after 24 hrs by Annexin-V and 7-AAD staining based flow cytometric analysis (reference value: 2.04%); assay type: functional
MCF7 [2] = assay: Induction of apoptosis in human MCF7 cells assessed as necrotic cells at 0.005 uM after 24 hrs by Annexin-V and 7-AAD staining based flow cytometric analysis (reference value: 0.16%); assay type: functional
PC-3 = assay: Antiproliferative activity against human PC3 cells overexpressing FAK assessed as reduction in cell viability after 72 hrs by MTS assay; details: PC-3, 72 h
MCF7 [3] = assay: Induction of cell cycle arrest in human MCF7 cells assessed as accumulation at S phase at 0.05 uM after 24 hrs by 7-AAD staining-based flow cytometric analysis (reference value: 26.07%); assay type: functional
HCT-116 [4] = assay: Antiproliferative activity against human HCT116 cells overexpressing FAK assessed as reduction in cell viability after 72 hrs by MTS assay; details: HCT-116, 72 h
MCF7 [5] = assay: Induction of apoptosis in human MCF7 cells assessed as viable cells at 0.05 uM after 24 hrs by Annexin-V and 7-AAD staining based flow cytometric analysis (reference value: 90.2%); assay type: functional; details: MCF7, 24 h, read-out: Activity
HCT-116 [6] = assay: Induction of apoptosis in human HCT116 cells assessed as necrotic cells at 0.05 uM after 24 hrs by Annexin-V and 7-AAD staining based flow cytometric analysis (reference value: 0.68%); assay type: functional
HCT-116 [7] = assay: Induction of apoptosis in human HCT116 cells assessed as necrotic cells at 0.005 uM after 24 hrs by Annexin-V and 7-AAD staining based flow cytometric analysis (reference value: 0.68%); assay type: functional
MCF7 [8] = assay: Induction of apoptosis in human MCF7 cells assessed as early apoptotic cells at 0.05 uM after 24 hrs by Annexin-V and 7-AAD staining based flow cytometric analysis (reference value: 2.04%); assay type: functional
MCF7 [9] = assay: Induction of cell cycle arrest in human MCF7 cells assessed as accumulation at G2/M phase at 0.05 uM after 24 hrs by 7-AAD staining-based flow cytometric analysis (reference value: 11.48%); assay type: functional
Homo sapiens = species on record: Homo sapiens; assay: Induction of apoptosis in human […] after 24 hrs by Annexin-V and 7-AAD staining based flow cytometric analysis; assay type: functional, cell-based
MCF7 [10] = assay: Induction of apoptosis in human MCF7 cells assessed as late apoptotic cells at 0.05 uM after 24 hrs by Annexin-V and 7-AAD staining based flow cytometric analysis (reference value: 7.63%); assay type: functional
HCT-116 [11] = assay: Induction of apoptosis in human HCT116 cells assessed as late apoptotic cells at 0.005 uM after 24 hrs by Annexin-V and 7-AAD staining based flow cytometric analysis (reference value: 2.63%); assay type: functional
HCT-116 [12] = assay: Induction of cell cycle arrest in human HCT116 cells assessed as accumulation at G2/M phase at 0.05 uM after 24 hrs by 7-AAD staining-based flow cytometric analysis (reference value: 12.26%); assay type: functional
U-87 MG = assay: Antiproliferative activity against human U87MG cells overexpressing FAK assessed as reduction in cell viability after 72 hrs by MTS assay
HCT-116 [13] = assay: Induction of apoptosis in human HCT116 cells assessed as necrotic cells at 0.1 uM after 24 hrs by Annexin-V and 7-AAD staining based flow cytometric analysis (reference value: 0.68%); assay type: functional
MCF7 [14] = assay: Induction of apoptosis in human MCF7 cells assessed as necrotic cells at 0.01 uM after 24 hrs by Annexin-V and 7-AAD staining based flow cytometric analysis (reference value: 0.16%); assay type: functional
MCF7 [15] = assay: Induction of cell cycle arrest in human MCF7 cells assessed as increase in accumulation at G2/M phase after 24 hrs by 7-AAD staining-based flow cytometric analysis; assay type: functional
HCT-116 [16] = assay: Induction of cell cycle arrest in human HCT116 cells assessed as accumulation at G0/G1 phase at 0.005 uM after 24 hrs by 7-AAD staining-based flow cytometric analysis (reference value: 50.53%); assay type: functional

Question: What does the source list for `CNC(=O)c1ccccc1Nc1nc(Nc2ccc(C(=O)N3CCN(C(=S)SCCN(C)C)CC3)cc2)ncc1C(F)(F)F`?
Answer: Activity (MCF7 [1]): 9.11%; Activity (MCF7 [2]): 0.16%; IC50 (PC-3): 30 nM; Activity (MCF7 [3]): 7.2%; IC50 (HCT-116 [4]): 1 nM; viability at 0.05 µM (MCF7 [5]): 60.1%; Activity (HCT-116 [6]): 0.29%; Activity (HCT-116 [7]): 0.2%; Activity (MCF7 [8]): 13.7%; Activity (MCF7 [9]): 86.08%; Activity (Homo sapiens): Dose-dependent effect; Activity (MCF7 [10]): 25.7%; Activity (HCT-116 [11]): 1.42%; Activity (HCT-116 [12]): 87.56%; IC50 (U-87 MG): 60 nM; Activity (HCT-116 [13]): 0%; Activity (MCF7 [14]): 0.47%; Activity (MCF7 [15]): Dose-dependent effect; Activity (HCT-116 [16]): 39.76%
